Results on 25 compounds are retold here after publication PMC6301270 (MedChemComm, 2018).

Assay [1] relates to T.b. brucei (strain 427) bloodstream form parasites. The assay can be described thus: T.b. brucei single concentration screen (10 μM). Particulars: Trypanosoma brucei, read-out: T.b.brucei % viability (10 µM).
For assay [2], the system named is T.b. brucei. Set-up: method as in https://www.pathogenbox.org/. To be noted: ref https://www.pathogenbox.org/, cited from earlier work; for IC50: Table 1, kinetoplastid category, read-out: T. brucei brucei IC50 (μM) Pathogen Box.
The subject of assay [3] is T.b. brucei (strain 427) bloodstream form parasites. Description: Trypanosoma brucei assay, dose–response (this study). The class given is cell-based. To be noted: for IC50: Trypanosoma brucei, read-out: T. brucei brucei IC50 (μM) This study.
Assay [4] relates to HeLa cells. The assay can be described thus: HeLa cell assay (cytotoxicity). Type of assay: cell-based. To be noted: Homo sapiens. The protocol: HeLa cells were cultured in DMEM medium supplemented with 10% fetal bovine serum and antibiotics (penicillin/streptomycin/amphotericin B) at 37 °C in a 5% CO2 incubator. On the day prior to compound addition, cells were plated in 96-well plates at 2 × 10^4 cells per well. Compounds were added to the cells in 3-fold serial dilutions and incubation at 37 °C in a 5% CO2 incubator continued for 48 hours. Twenty μl resazurin reagent (0.5 mM resazurin in phosphate-buffered saline) was added to each well and, after a 2-hour incubation, fluorescence (Exc560/Em590) was measured in a plate reader. Percentage cell viability in drug-treated wells was calculated from the fluorescent readings obtained relative to those in wells containing control, untreated cells. Plots of % cell viability vs. log[compound] were used to determine IC50 values by non-linear regression analysis using GraphPad Prism.

Assay [5] relates to T.b. brucei. On the set-up: method as in PMID 28674055. Particulars: cited from earlier work.
The mark [6] stands for this setting: Table 1, kinetoplastid category, 48 hours at 37 °C, resazurin.
Where [7] appears, read: Table 1, HeLa cells, 48 hours, resazurin, read-out: HeLa IC50.

Read-outs that look alike come from different tables or passages of the source. Where only a bound is given, the exact number is not on record here.

In the case of `c1ccc(Oc2ccc(-c3cc(N4CCNCC4)[nH]n3)cc2)cc1` [Compound 30, C1CN(CCN1)c2cc(n[nH]2)c3ccc(Oc4ccccc4)cc3], the viability (in general, a per cent measure of how many cells are alive, often set against a control) at 10 µM in assay [1] is 0.3%. Besides, the results for the IC50 in assay [2], in assay [3] (setting [6]) and in assay [4] (setting [7]) were 0.99 µM, 2.3 µM and 11 µM, respectively.
Regarding `Cc1nn2c(O)c3c(nc2c1-c1ccc(F)cc1)CCCC3` [Compound 28, Cc1nn2c(O)c3CCCCc3nc2c1c4ccc(F)cc4], in assay [1], the viability at 10 µM came to 12%. Further, the figures for the IC50 in assay [2], in assay [3] (setting [6]) and in assay [4] (setting [7]) were 1.94 µM, 4.6 µM and above 25 µM, respectively.
On to `COc1ccc(S(=O)(=O)Nc2ccc(CN3CCN(C(=O)c4cccc(C#N)c4)CC3)cc2)cc1` [Compound 18, O=C(N1CCN(CC2=CC=C(NS(=O)(C3=CC=C(OC)C=C3)=O)C=C2)CC1)C4=CC(C#N)=CC=C4], for which the viability at 10 µM in assay [1] came to 6.5%. In addition, the concentration for half-maximal inhibition (IC50) (as a rule, the concentration that gives 50% inhibition) in assay [2] was 0.5 µM; in assay [3] (setting [6]), 0.44 µM; in assay [4] (setting [7]) it was above 25 µM.
Turning to `Cc1ccc(S(=O)(=O)Nc2ccc(CN3CCN(C(=O)c4cccc(C#N)c4)CC3)cc2)cc1` [Compound 11, O=C(N1CCN(CC2=CC=C(NS(=O)(C3=CC=C(C)C=C3)=O)C=C2)CC1)C4=CC(C#N)=CC=C4], in assay [1], the viability at 10 µM was found to be 6.6%. For the same compound, the IC50 is 0.14 µM in assay [2], 0.12 µM in assay [3] (setting [6]) and above 25 µM in assay [4] (setting [7]).
Consider `CCOC(=O)c1noc(N)c1-c1ccccc1` [Compound 34, CCOC(=O)c1noc(N)c1c2ccccc2], for which, in assay [1], the viability at 10 µM was determined as 12%. Besides, the IC50 in assay [2] is 1.22 µM; in assay [3] (setting [6]) it was 0.41 µM; in assay [4] (setting [7]) it was above 25 µM. Besides, the “T.b. brucei activity in words, Pathogen Box” value in assay [2] is listed as “low micromolar range”. In addition, in assay [3], the “T.b. brucei inhibition in words, this study” value was “mid-nanomolar inhibitor”.
Take `CCc1ccccc1-n1c(C)cn2c3c(=O)n(C(C(=O)OC)C(C)C)c(=O)n(C)c3nc12` (stereo not shown) [Compound 4, CCc1ccccc1n2c(C)cn3c4C(=O)N(C(C(C)C)C(=O)OC)C(=O)N(C)c4nc23]: the viability at 10 µM in assay [1] came out at 0%. For the same compound, the IC50 is below 0.13 µM in assay [2], 0.03 µM in assay [3] (setting [6]) and above 25 µM in assay [4] (setting [7]).
With `COc1ccc(C2=NN(C3CCCCCC3)C(=O)[C@@H]3CC=CC[C@H]23)cc1OCCCCOc1ccc(-c2nnn[nH]2)cc1` [Compound 15, COC1=C(OCCCCOC2=CC=C(C3=NNN=N3)C=C2)C=C(C([C@@H]4[C@H]5CC=CC4)=NN(C6CCCCCC6)C5=O)C=C1], the viability at 10 µM in assay [1] was found to be 6%. In addition, the concentration for half-maximal inhibition (IC50) in assay [2] is 0.02 µM; in assay [3] (48 h), 0.12 µM; in assay [4] (HeLa, 48 h, read-out: HeLa IC50 (μM)) it was above 25 µM.
With `NCCN(C(=O)c1ccc(Cl)cc1Cl)c1ccc(OCc2ccc(Cl)cc2)cc1` [Compound 9, NCCN(C(=O)c1ccc(Cl)cc1Cl)c2ccc(OCc3ccc(Cl)cc3)cc2], the viability at 10 µM in assay [1] came to 4%. In addition, the concentration for half-maximal inhibition (IC50) in assay [2] was below 0.13 µM; in assay [3] (setting [6]) it was 0.49 µM; in assay [4] (setting [7]) it was 7.5 µM.
For `CCCCN(CCCC)c1c(C#N)cc(S(=O)(=O)Nc2ccccc2)cc1C#N` [Compound 19, CCCCN(CCCC)c1c(cc(cc1C#N)S(=O)(=O)Nc2ccccc2)C#N], the viability at 10 µM in assay [1] was 6%. Besides, the IC50 in assay [2] was 0.26 µM; in assay [3] (setting [6]), 1.3 µM; in assay [4] (setting [7]), above 25 µM.
Consider `O=C(Nc1ccc(C(F)(F)F)c(C(F)(F)F)c1)c1cc(Cl)ccc1O` [Compound 66, Oc1ccc(Cl)cc1C(=O)Nc2ccc(c(c2)C(F)(F)F)C(F)(F)F], for which the viability at 10 µM in assay [1] worked out at 42%. Besides, the “T.b. brucei inhibition in words, Duffy et al.” value in assay [5] is “sub-micromolar inhibitor”.
As for `CNC(=O)C1Cc2ccccc2N1C(=O)Cc1ccc(F)cc1` (stereo not shown) [Compound 22, CNC(=O)C1Cc2ccccc2N1C(=O)Cc3ccc(F)cc3], in assay [1], the viability at 10 µM came out at 7%. In addition, the IC50 in assay [2] is 0.49 µM; in assay [3] (setting [6]) it was 0.71 µM; in assay [4] (setting [7]) it was above 25 µM.
In the case of `O=C(NCc1nnc2n1CCCCC2)c1ccc(-c2ccc(F)cc2)o1` [Compound 8, Fc1ccc(cc1)c2oc(cc2)C(=O)NCc3nnc4CCCCCn34], in assay [1], the viability at 10 µM was determined as 1.3%. Further, the IC50 in assay [2] was 0.1 µM; in assay [3] (setting [6]), 0.11 µM; in assay [4] (setting [7]), above 25 µM.
On to `N=C(N)Nc1ccc(-c2ccc(-c3ccc(N=C(N)N)c(Cl)c3)o2)cc1Cl` [Compound 16, NC(=N)Nc1ccc(cc1Cl)c2oc(cc2)c3ccc(N=C(N)N)c(Cl)c3], for which, in assay [1], the viability at 10 µM came to 1.2%. Further, the IC50 in assay [2] was 0.6 µM; in assay [3] (setting [6]) it was 0.65 µM; in assay [4] (setting [7]), 17 µM.
Turning to `CO[C@@H](C(=O)N1Cc2[nH]nc(NC(=O)c3ccc(N4CCN(C)CC4)cc3)c2C1)c1ccccc1` [Compound 21, CO[C@@H](C(=O)N1Cc2[nH]nc(NC(=O)c3ccc(cc3)N4CCN(C)CC4)c2C1)c5ccccc5], the viability at 10 µM in assay [1] was found to be 4.5%. The IC50 in assay [2] is 1.02 µM; in assay [3] (setting [6]), 0.3 µM; in assay [4] (setting [7]), above 25 µM.
In the case of `O=C(NCCc1ccn(-c2ccccc2)n1)C1CCCCC1` [Compound 13, O=C(NCCc1ccn(n1)c2ccccc2)C3CCCCC3], in assay [1], the viability at 10 µM was determined as 2%. Besides, the 50% inhibitory concentration (IC50) is 0.15 µM in assay [2], 0.21 µM in assay [3] (setting [6]) and above 25 µM in assay [4] (setting [7]).
`CS(=O)(=O)c1ccccc1C(=O)N(Cc1ccccc1)c1ccccc1` [Compound 14, CS(=O)(=O)c1ccccc1C(=O)N(Cc2ccccc2)c3ccccc3]: the viability at 10 µM in assay [1] came out at 18%. The results for the IC50 in assay [2], in assay [3] (setting [6]) and in assay [4] (setting [7]) were 0.56 µM, 1.2 µM and above 25 µM, respectively.
As for `O=C(Nc1ccc2c(c1)B(O)OC2)c1ccccc1C(F)(F)F` [Compound 3, OB1OCc2ccc(NC(=O)c3ccccc3C(F)(F)F)cc12], in assay [1], the viability at 10 µM was 0%. For the same compound, the IC50 in assay [2] is 0.15 µM; in assay [3] (setting [6]) it was 0.14 µM; in assay [4] (setting [7]), above 25 µM.
As for `CCC(=O)Nc1ccccc1C(=O)Nc1ccccn1` [Compound 17, CCC(=O)Nc1ccccc1C(=O)Nc2ccccn2], in assay [1], the viability at 10 µM turned out to be 7%. Also, the IC50 in assay [2] was 2.46 µM; in assay [3] (setting [6]) it was 0.38 µM; in assay [4] (setting [7]), above 25 µM.
With `CN1CCN(S(=O)(=O)c2ccc(-c3ccc4c(Nc5ncc(Cl)cn5)ccnc4c3)cc2)CC1` [Compound 31, CN1CCN(CC1)S(=O)(=O)c2ccc(cc2)c3ccc4c(Nc5ncc(Cl)cn5)ccnc4c3], in assay [1], the viability at 10 µM amounted to 6.4%. In addition, the 50% inhibitory concentration (IC50) in assay [2] was 3.78 µM; in assay [3] (setting [6]), 2.2 µM; in assay [4] (setting [7]), above 25 µM.
`COc1ccc(C2=NN(C3CCCCCC3)C(=O)C2(C)C)cc1OCCCCOc1ccc(-c2nn[nH]n2)cc1` [Compound 25, COC1=C(OCCCCOC2=CC=C(C3=NNN=N3)C=C2)C=C(C4=NN(C5CCCCCC5)C(C4(C)C)=O)C=C1]: the viability at 10 µM in assay [1] was found to be 8.5%. The figures for the 50% inhibitory concentration (IC50) in assay [2], in assay [3] (setting [6]) and in assay [4] (setting [7]) were 0.79 µM, 1.7 µM and above 25 µM, respectively.
For `O=C(Nc1ccc(F)c(-c2nc3cc(-c4ccccc4)cnc3[nH]2)c1)N1CCCC1` [Compound 2, FC1=C(C=C(NC(=O)N2CCCC2)C=C1)C1=NC2=CC(=CN=C2N1)C1=CC=CC=C1], in assay [1], the viability at 10 µM stood at 2%. Further, the results for the IC50 in assay [2], in assay [3] (setting [6]) and in assay [4] (setting [7]) were below 0.13 µM, 0.049 µM and 0.8 µM, respectively.
On to `Cc1noc(C)c1COc1cccc(C(=O)N=c2[nH]cccc2C)c1` [Compound 20, Cc1onc(C)c1COc2cccc(c2)C(=O)Nc3ncccc3C], for which, in assay [1], the viability at 10 µM stood at 7%. Moreover, the half-maximal inhibitory concentration (IC50) is 2.07 µM in assay [2], 0.62 µM in assay [3] (setting [6]) and above 25 µM in assay [4] (setting [7]).
As to `Cc1ncc(-c2ccnc(Nc3ccc(S(C)(=O)=O)cc3)n2)n1C(C)C` [Compound 6, CC(C)n1c(C)ncc1c2ccnc(Nc3ccc(cc3)S(=O)(=O)C)n2], the viability at 10 µM in assay [1] was 2.2%. Moreover, the half-maximal inhibitory concentration (IC50) in assay [2] was 0.26 µM; in assay [3] (setting [6]), 0.084 µM; in assay [4] (setting [7]), 1.2 µM.
For the compound `CNC(=O)c1nn(C)c2c1C(C)(C)Cc1cnc(Nc3ccc(N4CCN(C)CC4)cc3)nc1-2` [Compound 7, CNC(=O)c1nn(C)c2c3nc(Nc4ccc(cc4)N5CCN(C)CC5)ncc3CC(C)(C)c12], in assay [1], the viability at 10 µM was 0.62%. Further, the values for the IC50 in assay [2], in assay [3] (setting [6]) and in assay [4] (setting [7]) were below 0.13 µM, 0.048 µM and 4 µM, respectively.
As for `COc1ccc(C(=N)N)cc1-c1cn(-c2ccc(C(=N)N)cc2)nn1` [Compound 12, COc1ccc(cc1c2cn(nn2)c3ccc(cc3)C(=N)N)C(=N)N], the viability at 10 µM in assay [1] amounted to 9%. Further, the IC50 in assay [2] was 0.25 µM; in assay [3] (setting [6]), 0.54 µM; in assay [4] (setting [7]), above 25 µM.
